Results on 25 molecules are retold here after patent publication US12565491B2, “(Isopropyl-triazolyl)pyridinyl-substituted benzooxazinone or benzothiazinone derivatives and use thereof” (HK INNO.N CORPORATION, priority 2018, dated 2026).

T1 sequence (Q99683 649-946 limits assumed): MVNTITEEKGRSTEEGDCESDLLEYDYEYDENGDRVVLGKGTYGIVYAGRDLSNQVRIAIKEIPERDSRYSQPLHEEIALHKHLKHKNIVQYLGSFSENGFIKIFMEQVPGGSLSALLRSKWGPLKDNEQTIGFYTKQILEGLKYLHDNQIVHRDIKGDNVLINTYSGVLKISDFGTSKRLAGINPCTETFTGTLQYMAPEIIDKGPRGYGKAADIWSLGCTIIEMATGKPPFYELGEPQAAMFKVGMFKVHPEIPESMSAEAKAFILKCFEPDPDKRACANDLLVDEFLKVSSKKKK

The test has as its target T1, ASK-1 enzyme (Homo sapiens, UniProt Q99683).
T1 construct: purchased Signal Chem M13-11G-10
In words: Inhibitory ability against ASK-1 enzyme activity (ADP-Glo Kinase Assay). It is filed as biochemical. Conditions: 250 μM ATP, MBP substrate, 30° C. for 40 minutes. Here is the method:
Experimental Example 1: Assay of Inhibitory Ability Against ASK-1 Enzyme Activity (ADP-Glo™ Kinase Assay)
In order to evaluate the inhibitory ability of the compounds of Examples 1 to 25 against ASK-1 enzyme activity, the following experiment was carried out using ADP-Glo™ (Promega, Cat. No. V9101). Each of the compounds was prepared into a solution at concentrations of 0.32 nM, 1.6 nM, 8 nM, 40 nM, 200 nM, 1,000 nM by adding a kinase buffer solution (40 mM Tris, 20 mM MgCl2, 0.1 mg/mL bovine serum albumin in H2O). Subsequently, 250 μM of ATP (Promega, Cat. No. V915A) and 0.5 g/L of MBP substrate (Signal Chem, Cat. No. 42-51N) were added thereto, and the mixture was reacted at 30° C. for 40 minutes in the presence of 15 ng of ASK-1 enzyme (Signal Chem, Cat. No. M13-11G-10). Then, the ADP-Glo™ reagent and a kinase detection reagent were sequentially added thereto and reacted for 40 minutes and 10 minutes, respectively. After completion of the reaction, luminescence was measured using a Synergy™ NEO microplate reader (BioTEK, NEOB-1311189).
The inhibitory ability of the compounds of Examples 1 to 25 against ASK-1 enzyme activity was verified by analyzing data from the measured RLU values. Specifically, the inhibitory ability against ASK-1 enzyme activity was assessed by deriving the residual activity percentage of the ASK-1 enzyme in the samples treated with the compounds at the concentration to be tested, while using the RLU value of the sample not treated with the compounds as a 100% control.
(ADP-Glo first removes unused ATP, then detects ADP through luciferase.)
Turning to `CC(C)n1cnnc1-c1cccc(N2COc3ccc(-c4cnn(C5CCOC5)c4)cc3C2=O)n1` (stereo not shown) [Example 5, 3-(6-(4-isopropyl-4H-1,2,4-triazol-3-yl)pyridin-2-yl)-6-(1-(tetrahydrofuran-3-yl)-1H-pyrazol-4-yl)-2,3-dihydro-4H-benzo[e][1,3]oxazin-4-one], the IC50 was 38.8 nM.
Under `CSc1ncc(-c2cc3c(cc2C)OCN(c2cccc(-c4nncn4C(C)C)n2)C3=O)cn1` [Example 17, 3-(6-(4-isopropyl-4H-1,2,4-triazol-3-yl)pyridin-2-yl)-7-methyl-6-(2-(methylthio)pyrimidin-5-yl)-2,3-dihydro-4H-benzo[e][1,3]oxazin-4-one] stands 7.8 nM; under `CCOC(C)n1cc(-c2ccc3c(c2)C(=O)N(c2cccc(-c4nncn4C(C)C)n2)CO3)cn1` (stereo not shown) [Example 6, 6-(1-(1-ethoxyethyl)-1H-pyrazol-4-yl)-3-(6-(4-isopropyl-4H-1,2,4-triazol-3-yl)pyridin-2-yl)-2,3-dihydro-4H-benzo[e][1,3]oxazin-4-one], 29.2 nM; under `CC(C)n1cnnc1-c1cccc(N2CSc3ccc(-c4cnc(C5CC5)nc4)cc3C2=O)n1` [Example 23, 6-(2-cyclopropylpyrimidin-5-yl)-3-(6-(4-isopropyl-4H-1,2,4-triazol-3-yl)pyridin-2-yl)-2,3-dihydro-4H-benzo[e][1,3]thiazin-4-one], 23.1 nM.
Turning to `CC(C)n1cnnc1-c1cccc(N2COc3ccc(-c4cnn(CC5CC5)c4)cc3C2=O)n1` [Example 1, 6-(1-(cyclopropylmethyl)-1H-pyrazol-4-yl)-3-(6-(4-isopropyl-4H-1,2,4-triazol-3-yl)pyridin-2-yl)-2,3-dihydro-4H-benzo[e][1,3]oxazin-4-one], the IC50 is 9.3 nM.
Under `CC(C)n1cnnc1-c1cccc(N2COc3ccc(-c4cnn(C(F)F)c4)cc3C2=O)n1` [Example 7, 6-(1-(difluoromethyl)-1H-pyrazol-4-yl)-3-(6-(4-isopropyl-4H-1,2,4-triazol-3-yl)pyridin-2-yl)-2,3-dihydro-4H-benzo[e][1,3]oxazin-4-one] stands 33.1 nM; under `CCOC(C)n1cc(-c2cc3c(cc2C)OCN(c2cccc(-c4nncn4C(C)C)n2)C3=O)cn1` (stereo not shown) [Example 20, 6-(1-(1-ethoxyethyl)-1H-pyrazol-4-yl)-3-(6-(4-isopropyl-4H-1,2,4-triazol-3-yl)pyridin-2-yl)-7-methyl-2,3-dihydro-4H-benzo[e][1,3]oxazin-4-one], 3.6 nM; under `CC(C)Cn1cc(-c2ccc3c(c2)C(=O)N(c2cccc(-c4nncn4C(C)C)n2)CO3)cn1` [Example 9, 6-(1-isobutyl-1H-pyrazol-4-yl)-3-(6-(4-isopropyl-4H-1,2,4-triazol-3-yl)pyridin-2-yl)-2,3-dihydro-4H-benzo[e][1,3]oxazin-4-one], 11 nM.
Under `CC(C)n1cnnc1-c1cccc(N2COc3ccc(-c4ccc(C5(C#N)CC5)cc4)cc3C2=O)n1` [Example 12, 1-(4-(3-(6-(4-isopropyl-4H-1,2,4-triazol-3-yl)pyridin-2-yl)-4-oxo-3,4-dihydro-2H-benzo[e][1,3]oxazin-6-yl)phenyl) cyclopropanecarbonitrile] stands 17 nM; under `Cc1cc2c(cc1-c1cnn(C(C)C)c1)C(=O)N(c1cccc(-c3nncn3C(C)C)n1)CO2` [Example 15, 6-(1-isopropyl-1H-pyrazol-4-yl)-3-(6-(4-isopropyl-4H-1,2,4-triazol-3-yl)pyridin-2-yl)-7-methyl-2,3-dihydro-4H-benzo[e][1,3]oxazin-4-one], 4.5 nM; under `CC(C)n1cnnc1-c1cccc(N2COc3ccc(-n4cnc(C5CC5)c4)cc3C2=O)n1` [Example 19, 6-(4-cyclopropyl-1H-imidazol-1-yl)-3-(6-(4-isopropyl-4H-1,2,4-triazol-3-yl)pyridin-2-yl)-2,3-dihydro-4H-benzo[e][1,3]oxazin-4-one], 4 nM.
Under `CC(C)n1cnnc1-c1cccc(N2COc3ccc(Nc4nccc(C(F)F)n4)cc3C2=O)n1` [Example 10, 6-(4-(difluoromethyl)pyrimidin-2-ylamino)-3-(6-(4-isopropyl-4H-1,2,4-triazol-3-yl)pyridin-2-yl)-2,3-dihydro-4H-benzo[e][1,3]oxazin-4-one] stands 7.2 nM; under `CC(C)n1cnnc1-c1cccc(N2COc3ccc(-c4ccncc4)cc3C2=O)n1` [Example 3, 3-(6-(4-isopropyl-4H-1,2,4-triazol-3-yl)pyridin-2-yl)-6-(pyridin-4-yl)-2,3-dihydro-4H-benzo[e][1,3]oxazin-4-one], 9.1 nM.
In the case of `Cc1ccnc(Nc2ccc3c(c2)C(=O)N(c2cccc(-c4nncn4C(C)C)n2)CO3)n1` [Example 4, 3-(6-(4-isopropyl-4H-1,2,4-triazol-3-yl)pyridin-2-yl)-6-(4-methylpyrimidin-2-ylamino)-2,3-dihydro-4H-benzo[e][1,3]oxazin-4-one], the IC50 came to 7.8 nM.
Under `Cc1ncc(-c2ccc3c(c2)C(=O)N(c2cccc(-c4nncn4C(C)C)n2)CS3)cn1` [Example 25, 3-(6-(4-isopropyl-4H-1,2,4-triazol-3-yl)pyridin-2-yl)-6-(2-methylpyrimidin-5-yl)-2,3-dihydro-4H-benzo[e][1,3]thiazin-4-one] stands 76.8 nM; under `CC(C)n1cnnc1-c1cccc(N2CSc3ccc(-c4cnn(CC5CC5)c4)cc3C2=O)n1` [Example 21, 6-(1-(cyclopropylmethyl)-1H-pyrazol-4-yl)-3-(6-(4-isopropyl-4H-1,2,4-triazol-3-yl)pyridin-2-yl)-2,3-dihydro-4H-benzo[e][1,3]thiazin-4-one], 7.3 nM.
For the molecule `CC(C)n1cc(-c2ccc3c(c2)C(=O)N(c2cccc(-c4nncn4C(C)C)n2)CS3)cn1` [Example 22, 6-(1-isopropyl-1H-pyrazol-4-yl)-3-(6-(4-isopropyl-4H-1,2,4-triazol-3-yl)pyridin-2-yl)-2,3-dihydro-4H-benzo[e][1,3]thiazin-4-one], the IC50 is 6.1 nM.
Under `Cc1cc2c(cc1-c1cncnc1)C(=O)N(c1cccc(-c3nncn3C(C)C)n1)CO2` [Example 16, 3-(6-(4-isopropyl-4H-1,2,4-triazol-3-yl)pyridin-2-yl)-7-methyl-6-(pyrimidin-5-yl)-2,3-dihydro-4H-benzo[e][1,3]oxazin-4-one] stands 20 nM.
For `Cc1cc2c(cc1-c1cnn(C3CCOC3)c1)C(=O)N(c1cccc(-c3nncn3C(C)C)n1)CO2` (stereo not shown) [Example 18, 3-(6-(4-isopropyl-4H-1,2,4-triazol-3-yl)pyridin-2-yl)-7-methyl-6-(1-(tetrahydrofuran-3-yl)-1H-pyrazol-4-yl)-2,3-dihydro-4H-benzo[e][1,3]oxazin-4-one] the value was 10.6 nM.
Under `CC(C)n1cnnc1-c1cccc(N2COc3ccc(-c4ccc(Cn5cccn5)cc4)cc3C2=O)n1` [Example 13, 6-(4-((1H-pyrazol-1-yl)methyl)phenyl)-3-(6-(4-isopropyl-4H-1,2,4-triazol-3-yl)pyridin-2-yl)-2,3-dihydro-4H-benzo[e][1,3]oxazin-4-one] stands 46.4 nM; under `CC(C)n1cnnc1-c1cccc(N2CSc3ccc(-c4cnn(C5CC5)c4)cc3C2=O)n1` [Example 24, 6-(1-cyclopropyl-1H-pyrazol-4-yl)-3-(6-(4-isopropyl-4H-1,2,4-triazol-3-yl)pyridin-2-yl)-2,3-dihydro-4H-benzo[e][1,3]thiazin-4-one], 26.2 nM; under `CC(C)n1cnnc1-c1cccc(N2COc3ccc(-c4cnn(C5CC5)c4)cc3C2=O)n1` [Example 8, 6-(1-cyclopropyl-1H-pyrazol-4-yl)-3-(6-(4-isopropyl-4H-1,2,4-triazol-3-yl)pyridin-2-yl)-2,3-dihydro-4H-benzo[e][1,3]oxazin-4-one], 13.8 nM.
As to `CC(C)CCn1cc(-c2ccc3c(c2)C(=O)N(c2cccc(-c4nncn4C(C)C)n2)CO3)cn1` [Example 11, 6-(1-isopentyl-1H-pyrazol-4-yl)-3-(6-(4-isopropyl-4H-1,2,4-triazol-3-yl)pyridin-2-yl)-2,3-dihydro-4H-benzo[e][1,3]oxazin-4-one], the IC50 was found to be 18.5 nM.
Under `CC(C)n1cnnc1-c1cccc(N2COc3ccc(-c4ccc(S(C)(=O)=O)cc4)cc3C2=O)n1` [Example 2, 3-(6-(4-isopropyl-4H-1,2,4-triazol-3-yl)pyridin-2-yl)-6-(4-(methylsulfonyl)phenyl)-2,3-dihydro-4H-benzo[e][1,3]oxazin-4-one] stands 50 nM.
For `Cc1cc2c(cc1-c1cnn(CC3CC3)c1)C(=O)N(c1cccc(-c3nncn3C(C)C)n1)CO2` [Example 14, 6-(1-(cyclopropylmethyl)-1H-pyrazol-4-yl)-3-(6-(4-isopropyl-4H-1,2,4-triazol-3-yl)pyridin-2-yl)-7-methyl-2,3-dihydro-4H-benzo[e][1,3]oxazin-4-one] the value was 4.4 nM.

As usually defined, the IC50 is the midpoint of a concentration-inhibition curve.
